Test results reported in patent US6916845B2, “Method for prevention and treatment of male and female sexual dysfunction” (priority 1999, dated 2005).
Read-outs that look alike come from different tables or passages of the source. Marks after values point to notes of the source that are not given here.

Columns and labels:
[1] = tested on: cGMP formation in clitoris CC of female rabbits; assay: cGMP formation in CC of clitoris stimulated with SNP, radioimmunoassay; format: cell-based, rabbit
adult male rat [2] = assay: Intracavernosal press (ICP) changes after intracavernosal administration and cavernous nerve electrical stimulation; format: in vivo; conditions: CN stimulation 10 minutes later
Method: (§1) Twenty-four male, adult Wistar rats(weight:300-350 g) were used. After anesthetization, the left carotid artery was cannulated to monitor mean arterial pressure (MAP). Bipolar electrodes were positioned on the cavernous nerve (CN); the right cavernous body was cannulated with 26 G needle connected with Biopack MP100 to monitor ICP changes. After intracavemosal administration of 100 μl different concentration Icariin or Reserpine (10^−8M to 10^−4M) respectively, the CN was electrically stimulated (ES) 10 minutes later and ICP and MAP were monitored. In order to investigate the possible mechanism of the effect of icariin on ICP changes, 100 μl different concentration guanylate cyclase inhibitor ODQ (10^−8M-10^−4M) were intracavemosal administrated 10 minutes after Icariin (100 μl 10^−4M) administration into CC, and then the ICP was measured during erection, which was, followed the ES.

[3] = tested on: rabbit's CC smooth muscle; assay: Relaxation of PHE pre-contracted corpus cavernosum smooth muscle strips in organ chamber; format: cell-based
Method: Sixty adults male New Zealand white rabbits(Weight: 2.5-3.0 kg) were used. Rabbits were anesthesia with sodium pentobarbital(50 mg/kg), penis was removed and corpus cavernous tissue were carefully isolated and made into 2×2×6 mm muscle strips for isometric tension was measured in organ chamber in vitro study with polygraph(MP 100 WS:Biopac systems, USA). CC muscle strip was fixed in 10 ml organ chamber containing Tyrode solution and continuously supplied with mixed gas(95% O2 and 5% CO2) and keep temperature at 37° C. The initial resting tensions of muscle strips were set at 2 g and tissue was allowed to equilibrate for 1.5-3.0 hours. Sub-maximal contractile responses to phenylepherine(PHE 5×10^-6 M) were observed and optimal isometric tension was determined. To evaluate the relaxation effects of icariin (the other components magnoflorine, querectin, epimedin A, B and C as the controls) on CC muscle strips, investigated the relaxation effects of different dosage of icariin on muscle strips pre-contracted by PHE. And to investigate the pharmaceutical action mechanism, the effects of […] Nω-nitric-L-arginine(L-NNA), guanylate cyclase antagonist methylene blue and pyrogallol, soluble guanylate cyclase inhibitor 1H-[1,2,4]oxadiazolo[4,3,-a]quinoxalin-1-one (ODQ) on the relaxation effects of icariin on CC.

[4] = tested on: PDE4 isolated from human liver tissue; assay: Inhibition of cAMP specific PDE4, two-step radioisotope procedure; format: biochemical
Method: (§2) PDE5 and PDE4 were isolated from human platelets and liver tissue using a Pharmacia FPLC system and Mono Q column. The cyclic nucleotide PDE5/PDE4 activities in FPLC fractions were determined using a modification of the two-step radioisotope procedure ([^3H]GMP/[^3H]AMP).

nNOS mRNA = nNOS mRNA expression in penis of castrated rat model by RT-PCR; format: in vivo; conditions: for Mean conc./area (nNOS) / Ratio (nNOS/β-actin): castrated, 3 months
Method: (§3) Male Wistar rats(300-350 g)(n=24) randomly divide into 4 Groups; Group A for control; Group B for castrated and administration normal saline; Group C for castrated and oral administration Icariin […]; Group D for castrated and oral administration Icariin (5 mg/kg) for 3 months. After observe mating behavior, the animal was killed, the penis was excised rapidly, and cut into four parts. One of them used for immuohistochemical stain, the others was socked into RNAlater and stored in −70 condition. nNOS, eNOS, iNOS mRNA were semi-quantified by RT-PCR, β-actin as a controls. Specificity of RT-PCR products was confirmed by sequencing procedure, with-assay and between-assay variation was carried out respectively.

[5] = target: T1, PDE5 isolated from human platelets (Homo sapiens, UniProt O76074); assay: Inhibition of cGMP specific PDE5, two-step radioisotope procedure; format: biochemical
T1 construct: PDE5 and PDE4 were isolated from human platelets and liver tissue using a Pharmacia FPLC system and Mono Q column; from tissue; host or cells: human platelets
Method: as §2

SD rat = format: in vivo; conditions: for LDso: once subcutaneously, after 7 days
Method: To investigate an acute toxicity of icariin, icariin was administered to SD rat. Total of 50 rats divide into 5 groups randomly and each group included 5 male and 5 female rats, respectively. The maximum dosage group for 3.0 g/kg, medium dosage group for 2.0 g/kg, sub-medium group for 1.0 g/kg and the minimum dosage group for 0.5 g/kg and comparative group for physiological saline solution only. Each of the drugs was once administered subcutaneously. After 7 days, it was shown that LDso of male was 1.88 g/kg and female was 1.96 g/kg.

iNOS mRNA = iNOS mRNA expression in penis of castrated rat model by RT-PCR; format: in vivo; conditions: for Mean conc./area (iNOS) / Ratio (iNOS/β-actin): castrated, 3 months
Method: as §3

[6] = tested on: castrated male Wistar rats; assay: Sexual activities (mating behavior) in castrated rat model after long-term oral administration; format: in vivo; conditions: Group C and D, oral icariin for 3 months, n=10/12
Method: as §3

adult male rat [7] = conditions: in vivo
Method: as §1

[8] = tested on: cAMP formation in rabbit corpus cavernosum; assay: cAMP formation in corpus cavernosum of penis stimulated with SNP, radioimmunoassay; format: cell-based
[9] = tested on: cGMP formation in rabbit corpus cavernosum; assay: cGMP formation in corpus cavernosum of penis stimulated with SNP, radioimmunoassay; format: cell-based; conditions: in the presence of SNP

COc1ccc(-c2oc3c(CC=C(C)C)c(O[C@@H]4O[C@H](CO)[C@@H](O)[C@H](O)[C@H]4O)cc(O)c3c(=O)c2O[C@@H]2O[C@@H](C)[C@H](O)[C@@H](O)[C@H]2O)cc1 [Icariin, icariin]
cGMP concentration in clitoris CC [1]: significantly increased | EC50 ([1]; Oryctolagus cuniculus, read-out: EC50 (cGMP formation, CC of clitoris)): 3.16 µM | Increase ICP (adult male rat [2]; 100 μl 10^−4M intracavernosal): 58.01 ± 5.78% | Increase ICP (adult male rat [2]; 100 μl 10^−5M intracavernosal): 30.48 ± 3.06% | Increase ICP (adult male rat [2]; 100 μl 10^−6M intracavernosal): 10.82 ± 1.06% | Increase ICP (adult male rat [2]; 100 μl 10^−7M intracavernosal): 5.53 ± 0.69% | EC50 ([3]; Oryctolagus cuniculus, read-out: EC50 on the relaxation effects of CC smooth muscle): 467 µM | relaxation effects on pre-contracted CC muscle strips ([3]; icariin 10^−4M): 23.12 ± 1.36% | relaxation effects on pre-contracted CC muscle strips ([3]; icariin 10^−5M): 4.42±1.08% | relaxation effects on pre-contracted CC muscle strips ([3]; icariin 10^−6M): 1.23±0.82% | relaxation effects on pre-contracted CC muscle strips ([3]; icariin 10^−7M): 0.08±0.04% | IC50 [4]: 73.5 µM | nNOS mRNA compared to control Group B (nNOS mRNA; Group C and D, p<0.05): significantly increased | Mean conc./area (nNOS) (nNOS mRNA; Group C, oral Icariin (mg/kg)): 44.60 | Ratio (nNOS/β-actin) (nNOS mRNA; Group C, oral Icariin (mg/kg)): 0.82* | Mean conc./area (nNOS) (nNOS mRNA; Group D, oral Icariin 5 mg/kg): 36.40 | Ratio (nNOS/β-actin) (nNOS mRNA; Group D, oral Icariin 5 mg/kg): 1.08* | IC50 [5]: 0.432 µM | inhibiting potency on PDE5 weaker than that of Sildenafil [5]: 108.10 times | specificity of inhibition PDE5 compared to PDE4 ([5]; ratio of IC50 PDE4/PDE5): 170.14 times | acute toxicity (SD rat; SD rat, subcutaneous): low toxicity | LDso (SD rat; female SD rat): 1960 mg/kg | LDso (SD rat; male SD rat): 1880 mg/kg | iNOS mRNA compared to control Group B (iNOS mRNA; Group C and D, p<0.05): significantly increased | Mean conc./area (iNOS) (iNOS mRNA; Group C, oral Icariin (mg/kg)): 17.28 | Ratio (iNOS/β-actin) (iNOS mRNA; Group C, oral Icariin (mg/kg)): 0.50* | Mean conc./area (iNOS) (iNOS mRNA; Group D, oral Icariin 5 mg/kg): 23.20 | Ratio (iNOS/β-actin) (iNOS mRNA; Group D, oral Icariin 5 mg/kg): 0.74* | castrated rats restored sexual activities [6]: 83.3% | influence on MAP (adult male rat [7]): no obviously influence | influence on cAMP levels [8]: no significantly influenced | cGMP concentration changes ([9]; 10^−3M): 10.43 ± 1.49 fmol/mg/min | cGMP concentration changes ([9]; 10^−4M): 10.82 ± 1.58 fmol/mg/min | cGMP concentration changes ([9]; 10^−5M): 8.92 ± 1.67 fmol/mg/min | cGMP concentration changes ([9]; 10^−6M): 8.66 ± 2.03 fmol/mg/min
